Test system: B16 cells
Experiment: Melanin content of murine B16 cells by absorbance at 405 nm, related to protein, relative to DMSO control
Format: cell-based
Conditions: for depigmenting activity compared with the positive control hydroquinone: FIG. 2, C9LA+ and C5LA+ given by way of indication
Procedure: The cells are seeded in a 10 cm Petri dish at a density of 7×10^5 per dish and are incubated for 96 hours, with a defined concentration of lichen-derived molecule, which has been purified and solubilized in DMSO. After treatment, the cells are recovered by treatment with trypsin and washed twice with PBS. The number of cells recovered is estimated by counting using a hemocytometer. One and the same fraction is used to determine the melanin content and the protein concentration. The melanin content is determined by the absorbance at 405 nm (VersaMax Microplate Reader, Molecular Devices, USA) of the cell solution after solubilization of the melanin with 1M sodium hydroxide, for 15 min at 80° C. The protein concentration is determined according to the protocol of the “DC Protein Assay” kit developed by Bio-Rad laboratories, USA. For each sample treated, the melanin content is related to the amount of protein and expressed as a percentage relative to the control situation (DMSO solution alone). Each measurement is carried out in triplicate and each experiment is carried out independently a minimum of 3 times (except for the C9LA+ and C5LA+ derivatives given by way of indication).
FIGS. 1 and 2 bring together the results. These figures show the melanin content of the B16 cells treated for 96 h in the presence of a given molecule (FIG. 2), or of a (+)-lichesterinic acid ((+)LA)/(+)-protolichesterinic acid ((+)PLA)/(+)-roccellaric acid ((+)RA) mixture in a 60/25/15 weight ratio (FIG. 1).
Along the x-axis are the molecules tested with their concentrations expressed in μM.
Along the y-axis, the melanin content is expressed as a percentage relative to the control (DMSO alone=concentration of 0.1%).

[1] = 96 h incubation, concentrations of 0.5 to 2 μM, relative to control, FIG. 2

C=C1C(=O)O[C@H](CCCCCCCCCCCCC)[C@H]1C(=O)O [PLA+, (+)-protolichesterinic acid]
decrease in the melanin level (same conditions, 0.25 μM, individually isolated product, results not given in figures): about −20%

Oc1ccc(O)cc1 [hydroquinone]
decrease in the melanin level (depigmenting positive control) (96 h incubation, under the same conditions, concentration not given, FIG. 2): −20%

CCCCCCCCCCCCC[C@H]1OC(=O)C(C)=C1C(=O)O [(+)-lichesterinic acid]
depigmenting activity compared with the positive control hydroquinone (96 h incubation): greater depigmenting activity

CCCCCCCCCCCCC[C@H]1OC(=O)[C@@H](C)[C@@H]1C(=O)O [roccellaric acid, (+)-roccellaric acid]
decrease in the melanin level (same conditions, 1 μM, individually isolated product, results not given in figures): not significant

CCCCC[C@H]1OC(=O)C(C)=C1C(=O)O [C5LA+]
depigmenting activity compared with the positive control hydroquinone (96 h incubation): comparable depigmenting activity

CCCCCCCCCCCCC[C@@H]1OC(=O)C(C)=C1C(=O)O [LA−, (−)-lichesterinic acid]
stimulation of melanin production [1]: +10% to +30%

CCCCCCCCC[C@H]1OC(=O)C(C)=C1C(=O)O [C9LA+, (+)-3-methyl-5-nonylparaconic acid]
depigmenting activity compared with the positive control hydroquinone (96 h incubation): greater depigmenting activity

(+)-protolichesterinic acid [PLA+]
decrease in the melanin level [1]: 10% to 20%
